# Source: patent US20230192617A1, “AZABICYCLIC(THIO)AMIDES AS FUNGICIDAL COMPOUNDS” (Bayer CropScience Aktiengesellschaft, priority 2020, published 2023)
# Key:
# [1] = test system: Pyrenophora teres; experiment: In vivo preventive test on Pyrenophora teres (net blotch on barley); conditions: 240 h, 500 ppm of active ingredient, preventive spray on barley, evaluated 10 days after inoculation, read-out: efficacy
# Procedure: B-3. In Vivo Preventive Test on Pyrenophora Teres (Net Blotch on Barley) [table] The active ingredients were made soluble and homogenized in a mixture of Dimethyl sulfoxide/Acetone/Tween® 80 and then diluted in water to the desired concentration. The young plants of barley were treated by spraying the active ingredient prepared as described above. Control plants were treated only with an aqueous solution of Acetone/Dimethyl sulfoxide/Tween® 80. After 24 hours, the plants were contaminated by spraying the leaves with an aqueous suspension of Pyrenophora teres spores. The contaminated barley plants were incubated for 48 hours at 20° C. and at 100% relative humidity and then for 8 days at 20° C. and at 70-80% relative humidity.
# [2] = Measurement of Log P values by HPLC on reversed phase columns (EEC directive 79/831 Annex V.A8); format: physicochemical; conditions: reversed phase HPLC column, method [a]: LC-UV, acidic range, 0.1% formic acid in water and acetonitrile as eluent
# How it was run: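 Reversed-phase HPLC with UV detection per EEC 79/831 Annex V.A8, linear 10–95% acetonitrile gradient. Aqueous eluent: 0.1% formic acid (acidic), 0.001 M ammonium acetate (neutral), or 0.1% phosphoric acid (acidic); multiple values in one method joined by "+".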
# [3] = test system: Botrytis cinerea; experiment: In vivo preventive test on Botrytis cinerea (grey mould); conditions: 500 ppm of active ingredient, preventive spray on gherkin or cabbage, evaluated 4 to 5 days after inoculation, read-out: efficacy
# How it was run: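 Young gherkin or cabbage plants were sprayed with compound in DMSO/acetone/Tween 80 diluted in water, then inoculated 24 hours later with a B. cinerea spore suspension. Incubation lasted 4 to 5 days: gherkin at 17° C., 90% relative humidity; cabbage at 20° C., 100% relative humidity.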
# [4] = test system: Colletotrichum lindemuthianum; experiment: B-8. Colletotrichum lindemuthianum in vitro cell test; format: cell-based; conditions: 144 h, 20 ppm of active ingredient, 6 days incubation, liquid culture, absorbance, read-out: efficacy (inhibition of fungal growth)
# How it was run: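 Spore suspension of C. lindemuthianum in liquid medium exposed to DMSO-solubilized compounds (final DMSO ≤1%) for 6 days. Mycelial growth read by absorbance, with inhibition calculated relative to compound-free control wells.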
# [5] = test system: Botrytis cinerea; experiment: B-11. Botrytis cinerea in vitro cell test; format: cell-based; conditions: 144 h, 20 ppm of active ingredient, 6 days incubation, liquid culture, absorbance, read-out: efficacy (inhibition of fungal growth)
# How it was run: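 B. cinerea spores were grown in liquid culture with compound (DMSO ≤1% final). Mycelium growth was measured spectrometrically after 6 days, with inhibition taken as absorbance relative to untreated control wells.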
# [6] = test system: Sphaerotheca fuliginea; experiment: In vivo preventive test on Sphaerotheca fuliginea (powdery mildew on cucurbits); conditions: Podosphaera fuliginea, 192 h; 500 ppm of active ingredient; preventive spray on gherkin; evaluated 8 days after inoculation; read-out: efficacy
# How it was run: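 Young gherkin plants were sprayed with compound in DMSO/acetone/Tween 80 diluted in water. They were inoculated 24 h later with a spore suspension of Sphaerotheca fuliginea. Plants were then kept for 8 days at 20 °C and 70–80% relative humidity.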
# [7] = test system: Colletotrichum lindemuthianum; experiment: In vivo preventive test on Colletotrichum lindemuthianum (leaf spot on bean); conditions: 168 h, 500 ppm of active ingredient, preventive spray on bean, evaluated 7 days after inoculation, read-out: efficacy
# How it was run: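 Young bean plants sprayed with compound in DMSO/acetone/Tween 80 diluted in water; solvent-only controls. Inoculated 24 h later with C. lindemuthianum spore suspension, then kept 24 h at 20 °C/100% RH and 6 days at 20 °C/90% RH.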
# [8] = test system: Alternaria alternata; experiment: Alternaria alternata in vitro cell test; format: cell-based; conditions: 120 h, 20 ppm of active ingredient, liquid culture, 5 days incubation, spectrometric measurement of mycelium growth, read-out: efficacy (inhibition of fungal growth)
# How it was run: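 Liquid culture assay in which A. alternata spores in medium received DMSO-solubilized compound (final DMSO ≤1%). After 5 days, mycelium growth was measured spectrometrically. Inhibition was calculated against fungicide-free control wells.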
# [9] = test system: Alternaria brassicae; experiment: In vivo preventive test on Alternaria brassicae (leaf spot on radish or cabbage); conditions: 500 ppm of active ingredient, preventive spray on radish or cabbage, evaluated 3 to 4 days after inoculation, read-out: efficacy
# How it was run: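 Young radish or cabbage plants were sprayed with compound dissolved in DMSO/acetone/Tween 80 and diluted in water; controls received solvent only. Inoculation by spraying A. brassicae spore suspension 24 h later, then 3–4 days at 20 °C and 100% relative humidity.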
# [10] = test system: Septoria tritici; experiment: B-9. Septoria tritici in vitro cell test; format: cell-based; conditions: Zymoseptoria tritici, 168 h; 20 ppm of active ingredient; 7 days incubation; liquid culture, absorbance; read-out: efficacy (inhibition of fungal growth)
# Procedure: B-9. Septoria tritici In Vitro Cell Test [table] Fungicides were solubilized in DMSO and the solution used to prepare the required range of concentrations. The final concentration of DMSO used in the assay was ≤1%. A spore suspension of S. tritici was prepared and diluted to the desired spore density. Fungicides were evaluated for their ability to inhibit spore germination and mycelium growth in liquid culture assay. The compounds were added in the desired concentration to the culture medium with spores. After 7 days incubation, fungi-toxicity of compounds was determined by spectrometric measurement of mycelium growth. Inhibition of fungal growth was determined by comparing the absorbance values in wells containing the fungicides with the absorbance in control wells without fungicides.
# [11] = test system: Pyrenophora teres; experiment: B-10. Pyrenophora teres in vitro cell test; format: cell-based; conditions: 144 h, 20 ppm of active ingredient, 6 days incubation, liquid culture, absorbance, read-out: efficacy (inhibition of fungal growth)
# How it was run: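 Liquid-culture assay on a P. teres spore suspension with compounds added to the medium from DMSO solutions, final DMSO ≤1%. Mycelium growth read spectrometrically after 6 days. Inhibition calculated from absorbance against untreated control wells.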
chromatographic logP [2],Compound,pest or weed control at 500 ppm [1] [%],pest or weed control at 500 ppm [3] [%],inhibition at 20 ppm [4] [%],inhibition at 20 ppm [5] [%],pest or weed control at 500 ppm [6] [%],pest or weed control at 500 ppm [7] [%],inhibition at 20 ppm [8] [%],pest or weed control at 500 ppm [9] [%],inhibition at 20 ppm [10] [%],inhibition at 20 ppm [11] [%]
4.23,Cc1cc(Cl)ccc1[C@@H](F)CNC(=O)c1c(Oc2cccc(Cl)c2)nnc2ccccc12 (racemic) [I-053],70 to 79,90 to 100,90 to 100,90 to 100,80 to 89,90 to 100,90 to 100,90 to 100,–,–
4.47,O=C(NC[C@H](F)c1ccc(C2CC2)cc1Cl)c1c(Oc2cccc(Cl)c2)nnc2ccccc12 (racemic) [I-054],80 to 89,90 to 100,90 to 100,90 to 100,70 to 79,90 to 100,90 to 100,90 to 100,–,–
4.33,Cc1cc(Br)ccc1[C@@H](F)CNC(=O)c1c(Oc2cccc(Cl)c2)nnc2ccccc12 (racemic) [I-055],80 to 89,90 to 100,90 to 100,90 to 100,90 to 100,70 to 79,90 to 100,90 to 100,–,–
4.15,Cc1ccc([C@@H](F)CNC(=O)c2c(Oc3cccc(C(F)(F)F)c3)nnc3c2OCC(C)(C)CO3)c(C)c1 (racemic) [I-156],–,–,90 to 100,90 to 100,–,–,90 to 100,–,90 to 100,90 to 100
3.92,Cc1ccc(C(F)(F)CNC(=O)c2c(Oc3cccc(C(F)F)c3)nnc3ccccc23)c(C)c1 [I-033],70 to 79,90 to 100,90 to 100,–,90 to 100,80 to 89,90 to 100,90 to 100,–,–
4.04,Cc1ccc(CCNC(=O)c2c(Oc3cccc(C(F)(F)F)c3)cnc3ccoc23)c(C)c1 [I-068],80 to 89,90 to 100,90 to 100,90 to 100,90 to 100,90 to 100,90 to 100,90 to 100,–,90 to 100
3.28,Cc1ccc(CCNC(=O)c2c(Oc3cccc(C(F)(F)F)c3)nnc3c2OCCO3)c(C)c1 [I-104],80 to 89,90 to 100,80 to 89,–,90 to 100,90 to 100,90 to 100,90 to 100,–,–
3.94,"O=C(NCC(F)(F)c1ccc(Br)cc1Cl)c1c(Oc2cccc(C(F)(F)F)c2)cnc2c1OCCO2 [I-107, N-[2-(4-bromo-2-chloro-phenyl)-2,2-difluoro-ethyl]-7-[3-(tri-fluoromethyl)phenoxy]-2,3-dihydro-[1,4]dioxino[2,3-b]pyridine-8-carboxamide]",80 to 89,90 to 100,90 to 100,–,90 to 100,90 to 100,90 to 100,90 to 100,–,–
3.71,Cc1ccc(C(F)(F)CNC(=O)c2c(Oc3cccc(C(F)(F)F)c3)cnc3c2OCCO3)c(C)c1 [I-109],90 to 100,90 to 100,90 to 100,–,90 to 100,90 to 100,90 to 100,90 to 100,–,–
3.6,Cc1ccc(CCNC(=O)c2c(Oc3cccc(C(F)(F)F)c3)cnc3c2OCCO3)c(C)c1 [I-110],90 to 100,90 to 100,90 to 100,–,90 to 100,90 to 100,90 to 100,90 to 100,–,–
4.28,"Cc1ccc(C(F)(F)CNC(=O)c2c(Oc3cccc(C(F)(F)F)c3)nnc3c2CCCCC3)c(C)c1 [I-113, N-[2-(2,4-dimethylphenyl)-2,2-difluoro-ethyl]-3-[3-(trifluoro-methyl)phenoxy]-6,7,8,9-tetrahydro-5H-cyclohepta[c]pyridazine-4-carboxamide]",70 to 79,90 to 100,90 to 100,–,90 to 100,80 to 89,90 to 100,90 to 100,–,–
–,Cc1cc(Cl)ccc1C(F)(F)CNC(=O)c1c(Oc2cccc(C(F)F)c2)nnc2c1CCCC2 [I-163],–,–,90 to 100,90 to 100,–,–,90 to 100,–,90 to 100,90 to 100
4.59,Cc1ccc(C(F)(F)CNC(=O)c2c(Oc3cccc(C4CC4)c3)cnc3ccccc23)c(C)c1 [I-223],80 to 89,90 to 100,90 to 100,90 to 100,90 to 100,90 to 100,90 to 100,90 to 100,–,90 to 100
4.63,Cc1ccc(C(F)(F)CNC(=O)c2c(Oc3cccc(C4CC4)c3F)cnc3ccccc23)c(C)c1 [I-224],70 to 79,90 to 100,90 to 100,90 to 100,90 to 100,90 to 100,90 to 100,80 to 89,–,90 to 100
4.48,Cc1ccc(C(F)(F)CNC(=O)c2c(Oc3cccc(Br)c3)cnc3ccccc23)c(C)c1 [I-226],70 to 79,90 to 100,90 to 100,90 to 100,90 to 100,90 to 100,90 to 100,90 to 100,–,90 to 100
3.73,Cc1ccc(C(F)CNC(=O)c2c(Oc3cccc(Cl)c3F)nnc3c2CCC3)c(C)c1 (stereo not drawn) [I-236],90 to 100,90 to 100,–,90 to 100,90 to 100,90 to 100,80 to 89,90 to 100,–,90 to 100
